# Tests used:
# [1] = Taste modulation in applications (Table 3), malic/citric acid base; conditions: base malic acid 1000 ppm and citric acid 2000 ppm in water; 1 ppm, composition composed only of wogonin
# [2] = Masking effect on benzoic acid, trained panel; set-up: species or system human; conditions: base benzoic acid 250 ppm in water, test sample 0.5 ppm
# Source text: (§1) Preparation of Test Samples: […], oroxylin A-7 glucouronide, wogonoside, baicalein, oroxylin A and wogonin were purchased commercially. S. baicalensis extract (“Extract”) and cabohydrase-treated S. baicalensis extract (“Treated Extract”) were obtained as above in Example 1.
# (§2) Subsequently, all compounds and extracts were applied to different bases for evaluating their off-taste masking functions.
# (§3) Testing Procedure: The masking effects on the off-tastes (bitterness, sourness, astringency, lingering and drying aftertaste, etc.) associated with various food components was evaluated by a group of 16 trained panelist. Each provided a rank of masking intensity using the intensity scales of 0 to 5, where 0 represents “no masking effect,” 1 represents “minimal masking intensity” and 5 represents “the most masking intensity.” The average of the reported making intensity is presented in the following examples.
# A base solution of benzoic acid was prepared in water (250 ppm). […] The flavor profile of the benzoic acid solutions with compounds or extracts was further evaluated and is reported in the following: […]
# [3] = Masking effect on sorbic acid, trained panel; set-up: species or system human; conditions: base sorbic acid 150 ppm in water, test sample 0.5 ppm
# Source text: as §1, §2, §3
# A base solution of sorbic acid was prepared in water (150 ppm). […] The flavor profile of the sorbic acid solutions with compounds or extracts were further evaluated and is reported in the following: […]
# [4] = Masking effect on Reb A, trained panel; set-up: species or system human; conditions: base Reb A 200 ppm in water; for Masking Intensity: panel average, scale 0-5
# Source text: as §1, §2, §3
# A base solution of Reb A was prepared in water (200 ppm). […] The flavor profile of the Reb A solutions with compounds or extracts were further evaluated and is reported in the following: […]
# [5] = Masking effect on pea protein, trained panel; set-up: species or system human; conditions: base TRUPRO pea protein 5% in water, test sample 0.5 ppm
# Source text: as §1, §2, §3
# A base solution of TRUPRO® pea protein (Solae LLC) was prepared in water (5%). […] The flavor profile of the pea protein solutions with compounds or extracts were further evaluated and is reported in the following: […]
# [6] = Masking effect on citric acid, trained panel; set-up: species or system human; conditions: base citric acid 300 ppm in water, test sample 0.5 ppm
# Source text: as §1, §2, §3
# A base solution of citric acid was prepared in water (300 ppm). […] The flavor profile of the citric acid solutions with compounds or extracts were further evaluated and is reported in the following: […]
# [7] = Masking effect on Acesulfame-K, trained panel; set-up: species or system human; conditions: base Acesulfame-K 300 ppm in water, test sample 0.5 ppm
# Source text: as §1, §2, §3
# A base solution of Acesulfame-K was prepared in water (300 ppm). […] The flavor profile of the Acesulfame-K solutions with compounds or extracts were further evaluated and is reported in the following: […]
# [8] = Masking effect on Reb M, trained panel; set-up: species or system human; conditions: base Reb M 200 ppm in water; for Masking Intensity: panel average, scale 0-5
# Source text: as §1, §2, §3
# A base solution of Reb M was prepared in water (200 ppm). […] The flavor profile of the Reb M solutions with compounds or extracts were further evaluated and is reported in the following: […]
# [9] = Taste modulating activity of the individual compounds; conditions: individual compounds, Example 1
# Procedure: With bio-transformation, most baicalin was converted to baicalein; oroxylin A glucuronide was converted to oroxylin A; and wogonoside was converted to wogonin. The activity of the individual compounds was also analyzed for taste modulating activity.
smiles,measurement,setting,value
"COc1c(O)cc(O)c2c(=O)cc(-c3ccccc3)oc12 [Wogonin, 5,7-dihydroxy-8-methoxyflavone]",Functions,[1],"Masked the sharp sourness, added mouthfeel"
same,Flavor Profile,[2],"Reduced astringency, sourness, and drying"
same,Masking Intensity,"[2]; panel average, scale 0-5",5
same,Flavor Profile,[3],"Reduced astringency, sourness, and drying"
same,Masking Intensity,"[3]; panel average, scale 0-5",5
same,Masking Intensity,[4]; test sample 0.001 ppm,1
same,Flavor Profile,[4]; test sample 0.01 ppm,"Slightly reduced astringency, licorice flavor"
same,Masking Intensity,[4]; test sample 0.01 ppm,2
same,Masking Intensity,[4]; test sample 0.1 ppm,3
same,Masking Intensity,[4]; test sample 0.5 ppm,4
same,Masking Intensity,[4]; test sample 1 ppm,5
same,Masking Intensity,[4]; test sample 10 ppm,3
same,Masking Intensity,[4]; test sample 50 ppm,2
same,Flavor Profile,[5],"Reduced astringency and bitterness, less"
same,Masking Intensity,"[5]; panel average, scale 0-5",5
same,Flavor Profile,[6],"Reduced tart taste, more pleasant"
same,Masking Intensity,"[6]; panel average, scale 0-5",4
same,Flavor Profile,[7],"Reduced bitterness and lingering aftertaste,"
same,Masking Intensity,"[7]; panel average, scale 0-5",4
same,Masking Intensity,[8]; test sample 0.01 ppm,1
same,Flavor Profile,[8]; test sample 0.1 ppm,Slightly reduced bitterness and lingering
same,Masking Intensity,[8]; test sample 0.1 ppm,3
same,Flavor Profile,[8]; test sample 0.5 ppm,"Reduced bitterness and lingering aftertaste,"
same,Masking Intensity,[8]; test sample 0.5 ppm,5
same,Flavor Profile,[8]; test sample 10 ppm,"Slightly reduced lingering aftertaste, very"
same,Masking Intensity,[8]; test sample 10 ppm,2
same,Flavor Profile,[8]; test sample 50 ppm,"Slightly reduced lingering aftertaste,"
same,Masking Intensity,[8]; test sample 50 ppm,1
same,taste modulating activity,[9],more active

# From patent US20250241347A1, “COMPOSITIONS AND METHODS FOR TASTE MODULATION” (INTERNATIONAL FLAVORS & FRAGRANCES INC., priority 2019, published 2025)
